# Read-outs that look alike come from different tables or passages of the source.
# Tests used:
# [1] = biological target: T1, mLysRS:IN interaction (human mLysRS, HIV-1 IN) (UniProt P12497+Q15046); experiment: HTRF assay of mLysRS:IN interaction; assay type: binding, human / HIV-1; settings: for effect on the mLysRS:IN interaction in the HTRF assay: dihydropyridine derivatives, Fig. S2
# T1 construct: made in house
# Method: Fig 1 Determination of the half-maximal inhibitory concentration (IC50) of the drugs in the mLysRS:IN binding assay. The binding of mLysRS to IN (red) or p38 (blue) was monitored in the HTRF assay in the presence of increasing drug concentrations (9–1,000 µM). The experimental values (symbols) were fitted (curves) to the equation Y = Ymin + {(Ymax − Ymin)/[1 + (X/IC50)^n]}, where n is the Hill coefficient. […] Proteins were isolated as described previously ([4]). Several batches of IN were used throughout this study. […] The molecules are dissolved in DMSO at a final concentration of 10 mM. After a 1 h incubation on ice, antibodies (Cisbio) directed to the His-tag and conjugated with Eu^3+ cryptate (Cisbio #61HISKLB) and the HA-tag conjugated with XL665 (Cisbio #610HAXLB) were added, and incubation was continued for 30 min. After the addition of 50 mM KF, fluorescence of Eu^3+ cryptate and of XL665 was recorded at 620 nm (I620) and 665 nm (I665), respectively, following excitation of Eu^3+ cryptate at 317 nm, in an Infinite M1000 PRO microplate reader (TECAN). The results were expressed as the ratio of I665/I620.
# [2] = system: HIV-1 NLENG1-IRES-GFP (NL4-3-GFP) virus in MT4 cells; experiment: ex vivo HIV-1 replication assay, GFP expression by flow cytometry in infected MT4 cells (multiple cycles); assay type: cell-based; settings: for GFP fluorescence, % of the value observed when DMSO was added alone: drug 10 µM, added 36–48 h after infection, read 72 h later
# Method: To test this hypothesis, azelastine, lacidipine, and cilnidipine were used in an ex vivo assay to determine their effect on HIV-1 proliferation. MT4 cells were infected with NLENG1-IRES-GFP, a virus that allows for multiple cycles of infection, and the molecules were added to the medium 36–48 h after infection, before the completion of the first round of viral infection; 72 h after the drugs were added, when two rounds of HIV-1 infection were underway, the level of GFP fluorescence was determined by flow cytometry, as a marker of HIV-1 infection (Fig. 3, left panel). HIV-1 replication was inhibited in a dose-dependent manner. […]. […] At the same time, no drug toxicity was observed, as determined by the MTT assay (Fig. 3, right panel). […] The selectivity index (SI) ([24]) of the three drugs, defined as the ratio of 50% cytotoxic concentration (CC50; >20 µM) to 50% inhibitory concentration (IC50; ~5 µM), >4.
# (§1) Fig 3 Effect of the inhibitors on HIV-1 replication and cell toxicity. MT4 cells were infected with NL4-3-GFP virus. Two days after infection, inhibitors were added to the culture medium at final concentrations of 1, 3.3, or 10 µM. The final concentration of DMSO was 0.1%. Five days after infection, GFP expression was quantified by flow cytometry, and cell viability was determined by the MTT assay. NInf corresponds to non-infected cells. Six independent experiments were performed, and standard deviations are shown. A Student t-test was used to determine statistical significance compared with the control experiment with DMSO (*: P < 0.001; **: P < 0.0001).
# MT4 cell line ([26]) was maintained in RPMI 1640. HEK293T and HeLa-P4 cells ([27]) were maintained in Dulbecco’s modified Eagle medium (DMEM). All media were supplemented with Glutamax and with 10% heat-inactivated fetal calf serum (Hyclone) and 1% penicillin/streptomycin (100 units/mL) (Gibco). All media were purchased from Gibco (Life Technologies Co.). All cell lines used here were incubated at 37 °C, under 5% CO2 atmosphere. HIV-1 stocks were prepared by calcium phosphate-mediated transfection of HEK293T cells, as previously described ([22]), with shuttle vector plasmids encoding HIV-1 NL4-3 (GenBank: AF324493.1) or NLENG1-IRES-GFP ([28]). The latter vector comes from the HIV NL4-3 strain and contains a gfp-IRES-nef cassette at the nef locus. […].
# For NL4-3-GFP vectors, viral infection is followed by GFP expression (i.e., the percentage and geometric mean fluorescence intensity [MFI] of GFP^+ cells). Infectivity was estimated by flow cytometry using a FACS Celesta flow cytometer (BD Biosciences). Toxicity is also assessed by flow cytometry (side and forward scatter).
# [3] = biological target: mLysRS (Homo sapiens, UniProt Q15046); experiment: tRNA aminoacylation assay; assay type: biochemical; settings: drug added up to 1 mM
# Chain of mLysRS (Q15046 31-625 isoform Q15046-2): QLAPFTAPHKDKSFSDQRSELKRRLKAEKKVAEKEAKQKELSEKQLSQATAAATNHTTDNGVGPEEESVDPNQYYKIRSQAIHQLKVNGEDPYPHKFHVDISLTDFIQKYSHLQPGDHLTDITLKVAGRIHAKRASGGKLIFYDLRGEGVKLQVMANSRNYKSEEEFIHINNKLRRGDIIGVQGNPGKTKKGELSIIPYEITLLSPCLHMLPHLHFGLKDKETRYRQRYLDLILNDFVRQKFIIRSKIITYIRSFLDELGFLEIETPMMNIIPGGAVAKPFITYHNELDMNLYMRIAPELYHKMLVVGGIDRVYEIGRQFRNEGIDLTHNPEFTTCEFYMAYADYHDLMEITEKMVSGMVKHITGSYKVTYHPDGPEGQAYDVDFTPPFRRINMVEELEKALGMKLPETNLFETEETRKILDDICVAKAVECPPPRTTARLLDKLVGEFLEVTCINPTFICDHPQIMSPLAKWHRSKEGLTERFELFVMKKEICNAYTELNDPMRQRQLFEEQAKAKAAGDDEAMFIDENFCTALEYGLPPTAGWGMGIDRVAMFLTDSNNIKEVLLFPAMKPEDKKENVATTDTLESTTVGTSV
# Method: Initial rates of tRNA aminoacylation were measured at 25°C in 0.1 mL of 20 mM Imidazole-HCl buffer (pH 7.5), 100 mM KCl, 0.5 mM DTT, 12 mM MgCl2, 2 mM ATP, 180 µM ^14C-labeled lysine (NEN; 16.66 Ci/mol), and saturating amounts of global yeast tRNA ([30]). The incubation mixture contained catalytic amounts (2 nM) of mLysRS appropriately diluted in 10 mM Tris-HCl (pH 7.5), 10 mM 2-mercaptoethanol, containing bovine serum albumin at 4 mg/mL. Inhibitors were added at final concentrations ranging from 3.9 to 1,000 µM. One unit of activity is the amount of enzyme producing 1 nmol of lysine-tRNA^Lys/min, at 25°C.
# Fig. S5. Effect of inhibitors on mLysRS activity. The tRNA-aminoacylation activity of mLysRS
# was determined in the presence of increasing concentrations of the drugs. Two independent
# experiments were performed and standard deviations are shown.
# Fig. 6. Raw data of quantification of minus-strand strong stop viral DNA and viral RNA by
# digital PCR from viruses recovered after 72 h incubation in the presence of 10 µM of the drugs.
# [4] = system: HIV-1 NL4-3 virus particles; experiment: digital PCR / RT-dPCR of minus-strand strong stop cDNA and viral RNA in particles; assay type: cell-based; settings: 10 µM drug, 72 and 96 h after infection
# From the text: We used digital RT-PCR and digital PCR to determine the viral mRNA and minus-strand strong stop viral cDNA content of the particles (Fig. 7; Fig. S6). The amount of early viral cDNA produced in the HIV-1 particles is a measure of the efficiency of the initiation step of reverse transcription, which requires the packaging of tRNA3^Lys at the budding step, the primer for cDNA synthesis.
# Fig 7 Effect of drugs on viral synthesis of minus-strand strong stop cDNA. Viruses were harvested from the culture medium after 72 (red) or 96 h (blue) of infection of MT4 cells with NL4-3 viruses. Minus-strand strong stop viral DNA and viral RNA (vRNA) were quantified by digital PCR and RT-dPCR, respectively. Viruses were harvested from cultures grown in the presence of 10 µM of azelastine (Aze), lacidipine (Lac), or cilnidipine (Cil), or H2O or DMSO as controls. Values and the associated standard deviations (n = 3) are expressed as the ratios of the values obtained for the H2O or DMSO controls. […].
# MT4 cells (2 × 10^6 cells) were infected with the NL4-3 viruses. After 4–5 h of infection at 37°C, cells were twice washed with PBS, incubated 5 min at 37°C in 0.25% trypsin-EDTA solution (Gibco) to eliminate viruses remaining in the medium, incubated 5 min at 37°C in complete RPMI medium, twice washed with PBS, resuspended in RPMI medium at a cell density of 200 × 10^3 cells/mL and incubated with 10 µM of azelastine (25 mM stock solution in H20), or lacidipine and cilnidipine (25 mM stock solution in DMSO). A second aliquot of the inhibitors was added to the culture medium 48 h after infection. […] All RNA and DNA quantifications were performed by digital PCR and RT-qPCR on a QIAcuity instrument (QIAGEN) using 26K 24-well nanoplates and the QIAcuity Probe PCR and One-Step Viral RT-PCR kits. Primers and probes were 5′-[…], 5′-[…], and 5′-[…] for the quantification of minus-strand strong-stop cDNA, and 5′-[…], 5′-[…], and 5′-[…] CGT for viral RNA quantification.
# [5] = system: MT4 cells; experiment: cell toxicity by MTT assay; assay type: cell-based, human; settings: MTT assay, 1, 3.3 or 10 µM
# Method: as §1
# Replication of the NL4-3 virus was determined either by the ELISA technique or in HeLa-P4 cells by the CPRG method as described previously ([29]). These are HeLa CD4 LTR-lacZ cells in which the expression of lacZ is induced by the HIV transactivator Tat, allowing precise quantification of the infectivity of HIV-1. The viral titer was determined by quantifying β-galactosidase activity in HeLa-P4 lysates in a colorimetric assay based on the cleavage of chlorophenol red-β-D-galactopyranoside (CPRG) by β-galactosidase. The cytotoxicity is evaluated by the MTT assay.
# [6] = HTRF, mLysRS 1.5 nM dimer, IN 25 nM dimer, read-out: half-maximal inhibitory concentration (IC50) in the mLysRS:IN assay
# T1 sequence (Q15046 other isoform, or with tags, fused parts or gaps, other chains not shown): as the sequence (Q15046 31-625 isoform Q15046-2) above
compound,measurement,setting,value
CCOC(=O)C1=C(C)NC(C)=C(C(=O)OC)C1c1cccc([N+](=O)[O-])c1 (centres unmarked) [nitrendipine],IC50,[1],> 500 µM
CCOC(=O)C1=C(C)NC(C)=C(C(=O)OCC)C1c1ccccc1/C=C/C(=O)OC(C)(C)C [lacidipine],IC50,[1]; [6],64 ± 8 µM
same,"GFP fluorescence, % of the value observed when DMSO was added alone",[2],27.2%
same,inhibition of Lysyl-tRNA^Lys synthesis,[3],30%
same,"minus-strand strong stop cDNA in viruses, normalized to viral RNA",[4],significantly reduced
COCCOC(=O)C1=C(C)NC(C)=C(C(=O)OC(C)C)C1c1cccc([N+](=O)[O-])c1 (centres unmarked) [nimodipine],effect on the mLysRS:IN interaction in the HTRF assay,[1],did not significantly alter
CC1=C(C(=O)OC(C)C)C(c2cccc([N+](=O)[O-])c2)C(C(=O)OC2CN(C(c3ccccc3)c3ccccc3)C2)=C(N)N1 (centres unmarked) [azelnidipine],cell toxicity,[5],higher cellular toxicity
CCCC(=O)OCOC(=O)C1=C(C)NC(C)=C(C(=O)OC)C1c1cccc(Cl)c1Cl (centres unmarked) [celvidipine],effect on the mLysRS:IN interaction in the HTRF assay,[1],did not significantly alter
CCOC(=O)C1=C(COCCN)NC(C)=C(C(=O)OC)[C@@H]1c1ccccc1Cl [levamlodipine],effect on the mLysRS:IN interaction in the HTRF assay,[1],did not significantly alter
CCOC(=O)C1=C(C)NC(C)=C(C(=O)OC)C1c1cccc(Cl)c1Cl (centres unmarked) [felodipine],effect on the mLysRS:IN interaction in the HTRF assay,[1],did not significantly alter
COC(=O)C1=C(C)NC(C)=C(C(=O)OCCN(C)Cc2ccccc2)C1c1cccc([N+](=O)[O-])c1 (centres unmarked) [nicardipine],IC50,[1],> 500 µM
COCCOC(=O)C1=C(C)NC(C)=C(C(=O)OC/C=C/c2ccccc2)C1c1cccc([N+](=O)[O-])c1 (centres unmarked) [cilnidipine],IC50,[1]; [6],310 ± 30 µM
same,"GFP fluorescence, % of the value observed when DMSO was added alone",[2],18.9%
same,inhibition of Lysyl-tRNA^Lys synthesis,[3],did not inhibit
same,"minus-strand strong stop cDNA in viruses, normalized to viral RNA",[4],significantly reduced
COC(=O)C1=C(C)NC(C)=C(C(=O)OC(C)(C)CN(C)CCC(c2ccccc2)c2ccccc2)C1c1cccc([N+](=O)[O-])c1 (centres unmarked) [Lercanidipine],cell toxicity,[5],higher cellular toxicity
CCOC(=O)C1=C(C)NC(C)=C(C(=O)OCC)C1 [Diludine],effect on the mLysRS:IN interaction in the HTRF assay,[1],did not significantly alter
COC(=O)C1=C(C)NC(C)=C(C(=O)OC(C)C)C1c1cccc2nonc12 (centres unmarked) [isradipine],IC50,[1],> 500 µM
COC(=O)C1=C(C)NC(C)=C(C(=O)OCC(C)C)C1c1ccccc1[N+](=O)[O-] (centres unmarked) [nisoldipine],inhibition of HIV-1 replication in the ex vivo assay,"[2]; NL4-3-GFP, Fig. S3",did not inhibit
COC(=O)C1=C(C#N)NC(C)=C(C(=O)OC(C)C)C1c1cccc([N+](=O)[O-])c1 (centres unmarked) [nivaldipine],IC50,[1]; [6],> 500 µM

# Reference: paper PMC12607897, “Inhibition of HIV-1 replication by primer RNA packaging inhibitors” (mBio, 2025)
